# From ChEMBL document CHEMBL3286240, “Inhibition of Enterococcus faecalis biofilm formation by highly active lactones and lactams analogues of rubrolides” (Eur J Med Chem, 2014)
# Tests used:
# [1] = tested on: Enterococcus faecalis; test: Antimicrobial activity against Enterococcus faecalis assessed as bacterial growth at 87.5 ug/ml after 20 hrs by microtiter plate assay; format: functional
# [2] = tested on: Enterococcus faecalis; test: Antimicrobial activity against Enterococcus faecalis assessed as bacterial growth at 43.8 ug/ml after 20 hrs by microtiter plate assay; format: functional
# [3] = tested on: Enterococcus faecalis; test: Antimicrobial activity against Enterococcus faecalis assessed as bacterial growth at 21.9 ug/ml after 20 hrs by microtiter plate assay; format: functional
# [4] = tested on: Enterococcus faecalis; test: Antimicrobial activity against Enterococcus faecalis assessed as bacterial growth at 10.9 ug/ml after 20 hrs by microtiter plate assay; format: functional
# [5] = tested on: Enterococcus faecalis; test: Antimicrobial activity against Enterococcus faecalis assessed as bacterial growth at 5.5 ug/ml after 20 hrs by microtiter plate assay; format: functional
# [6] = tested on: Enterococcus faecalis; test: Antimicrobial activity against Enterococcus faecalis assessed as bacterial growth at 2.73 ug/ml after 20 hrs by microtiter plate assay; format: functional
# [7] = tested on: Enterococcus faecalis; test: Antimicrobial activity against Enterococcus faecalis assessed as bacterial growth at 1.37 ug/ml after 20 hrs by microtiter plate assay; format: functional
# [8] = tested on: Enterococcus faecalis; test: Antimicrobial activity against Enterococcus faecalis assessed as bacterial growth at 0.68 ug/ml after 20 hrs by microtiter plate assay; format: functional
# [9] = tested on: Enterococcus faecalis; test: Antimicrobial activity against Enterococcus faecalis assessed as bacterial growth at 0.34 ug/ml after 20 hrs by microtiter plate assay; format: functional
# [10] = tested on: Enterococcus faecalis; test: Antimicrobial activity against Enterococcus faecalis assessed as bacterial growth at 0.17 ug/ml after 20 hrs by microtiter plate assay; format: functional
# [11] = tested on: Enterococcus faecalis; test: Antimicrobial activity against Enterococcus faecalis assessed as inhibition of biofilm formation after 20 hrs by crystal violet staining analysis; format: functional, organism-based
Structure (SMILES),Activity [1] [%],Activity [2] [%],Activity [3] [%],Activity [4] [%],Activity [5] [%],Activity [6] [%],Activity [7] [%],Activity [8] [%],Activity [9] [%],Activity [10] [%],IC50 [11] [µg/mL]
COc1ccc(C)cc1C1=C(Br)C(=O)N(CC(C)C)C1(O)Cc1cccc(Cl)c1 (stereo not drawn),53.1,36.8,24.9,5.8,4.2,4.8,2.1,3.3,0.7,-2.5,> 87.5
COc1ccc(C)cc1C1=C(Br)C(=O)N(CC(C)C)C1(O)Cc1ccccc1Cl (stereo not drawn),86.4,63.4,46,43.8,41.6,35.4,19.1,-12.4,-15.6,-3.7,1.07
COc1ccc(Cl)cc1C1=C(Br)C(=O)N(CC(C)C)C1(O)Cc1ccccc1Br (stereo not drawn),78,53.9,38.4,36.7,32.4,30.2,19.3,-10.6,-1.9,-5.1,1.29
COc1cccc(CC2(O)C(c3cc(Cl)ccc3OC)=C(Br)C(=O)N2CC(C)C)c1 (stereo not drawn),60.6,38.2,21.6,19.8,-8,9.5,3,4,1,-4,> 87.5
COc1ccccc1C1=C(Br)C(=O)N(CC(C)C)/C1=C\c1ccc(C(F)(F)F)cc1,45,11.2,4,-4.2,-8,-6.6,-5.2,-10.2,-10.4,-2.4,12
COc1ccc(Br)cc1C1=C(Br)C(=O)N(CC(C)C)/C1=C\c1cccc(Cl)c1,94.2,26.3,20.4,20,21.8,27,25.1,17.9,12.1,9.3,3.31
COc1ccc(Br)cc1C1=C(Br)C(=O)N(CC(C)C)/C1=C\c1ccc(Br)cc1,82.8,59.7,58.1,55.9,43,33.9,17.5,-1.3,0.3,-2.2,6.62
COc1ccc(C)cc1C1=C(Br)C(=O)N(CC(C)C)/C1=C\c1cccc(Cl)c1,64.5,61.8,46.8,34.4,31.1,14.5,11.9,11.6,6.9,6,62.6
COc1ccc(C)cc1C1=C(Br)C(=O)N(CC(C)C)/C1=C\c1ccccc1Cl,95.3,62.1,52.2,45.1,41.9,33,24.6,6.9,-7.4,-4.2,1.09
COc1ccc(Cl)cc1C1=C(Br)C(=O)N(CC(C)C)/C1=C\c1ccccc1Br,100.8,70,61.5,53.3,35.1,44.9,45.1,19.2,0,-4.1,1.48
COc1cccc(/C=C2/C(c3cc(Cl)ccc3OC)=C(Br)C(=O)N2CC(C)C)c1,94.6,55.6,45.7,39.3,42.5,29.1,21,5.9,2.5,0.2,1.46
COc1ccccc1C1=C(Br)C(=O)N(CC(C)C)/C1=C/c1ccc(C(F)(F)F)cc1,-18.9,17.5,15.8,11.1,9.2,10.9,1.6,2.3,0.4,3.3,2.96
COc1ccc(Br)cc1C1=C(Br)C(=O)N(CC(C)C)/C1=C/c1cccc(Cl)c1,98.2,75.5,67.3,57.3,48.8,42.5,33,23.5,20.1,16.1,3.46
COc1ccc(Br)cc1C1=C(Br)C(=O)N(CC(C)C)/C1=C/c1ccc(Br)cc1,57.1,22.5,18.1,10.6,9.6,20.2,15.8,1.8,-4.4,0.8,3.35
COc1ccc(C)cc1C1=C(Br)C(=O)N(CC(C)C)/C1=C/c1cccc(Cl)c1,81.4,38.4,31.8,19.4,10.5,5,1.4,1.4,6.8,0.4,59.3
COc1ccc(C)cc1C1=C(Br)C(=O)N(CC(C)C)/C1=C/c1ccccc1Cl,82,58.8,46.9,36.1,36.6,27.8,15.7,-1,-1.8,-1.5,1.04
COc1ccc(Cl)cc1C1=C(Br)C(=O)N(CC(C)C)/C1=C/c1ccccc1Br,60.9,43.4,32.4,42.7,43.4,33.3,19.2,9.1,7.4,0.5,0.76
COc1cccc(/C=C2\C(c3cc(Cl)ccc3OC)=C(Br)C(=O)N2CC(C)C)c1,56.3,33.5,30.1,20.8,33.7,8.1,-4.8,-6,-6.4,-9.4,3.26
